According to patent US20150038707A1, “PROCESS FOR MAKING CGRP RECEPTOR ANTAGONISTS” (Merck Sharp & Dohme Corp., priority 2012, published 2015):

How the values were obtained:
Format in all cases: in vivo
[1] = system: female Aedes aegypti (Thailand strain) mosquitoes; test: Contact irritancy assay on mosquitoes (Example 2); conditions: netting treated at 0.0025-2.5 nmol/cm^2; 10 minutes
Protocol: (§1) Four compounds of formula (I) were tested for contact irritancy (i.e., movement away from the source after physical contact) at low doses on female Aedes aegypti (Thailand strain) mosquitoes. The contact irritant response was determined by use of the contact irritant assay disclosed by Grieco et al. in “A New Classification System for the Actions of IRS Chemicals Traditionally Used for Malaria Control,” Plos One, Issue 8 (2007) (available at www.plosone.org). The assay used was a cylindrical assembly that included a metal treatment end to which 10 mosquitoes were introduced and a clear receiving chamber. The treatment end included a netting strip (nylon organdy) that was treated with the insecticide of interest at the relevant dose. A butterfly valve separated the treatment end from the remainder of the assembly.
Each composition was applied to the netting strip at a varied dose via a 1.5 ml acetone solution. Four (4) treatment concentrations were used—0.0025 nmol/cm^2, 0.025 nmol/cm^2, 0.25 nmol/cm^2 and 2.5 nmol/cm^2. Netting was allowed to dry for 15 minutes prior to placement in the cylinder. Control assays were performed with netting treated with acetone only.
For each run, 10 mosquitoes were transferred into the treatment end of the assembly and, after 30 seconds, the butterfly valve was opened. The valve was closed after 10 minutes and the number of mosquitoes in the clear end (i.e., the number of escaped mosquitoes) was tested.

[2] = system: female Aedes aegypti (Thailand strain) mosquitoes; test: Contact irritancy and spatial repellency screening (Example 4); conditions: Dosage 25 nmol/cm^2; mapped with 3000 other compounds
Protocol: as §1
(§2) The four compounds of formula I described in Example 2 were tested for spatial repellency (directed movement away from the chemical source without the insect making physical contact with the treated surface) at low doses on female Aedes aegypti (Thailand strain) mosquitoes. The spatial repellency response was determined by use of the spatial repellency assay disclosed by Grieco et al. in “A New Classification System for the Actions of IRS Chemicals Traditionally Used for Malaria Control” in Plos One, Issue 8 (2007) (available at www.plosone.org) which is incorporated herein by reference for all relevant and consistent purposes. The assay used was a cylindrical assembly that included a treatment chamber at one end and a control chamber at the other end. The treatment chamber included a netting strip (nylon organdy) that was treated with the insecticide of interest at the relevant dose. The treatment chamber and control chamber were connected by a clear cylinder and were separated from the clear cylinder by butterfly valves. Twenty (20) mosquitoes were introduced into the clear central chamber and the butterfly valves were opened after 30 seconds. After 10 minutes, the valves were closed and the number of mosquitoes in each chamber was counted.
Dosage was 25 nmol/cm^2. Several known compounds were also mapped for comparison—alphacypermethrin, cypermethrin, propoxur, bendiocarb, permethrin, SS220, DDT, deet and chlorpyrifos.

[3] = system: female Aedes aegypti (Thailand strain) mosquitoes; test: Spatial repellency assay on mosquitoes (Example 3); conditions: netting treated at 0.0025-2.5 nmol/cm^2
Protocol: as §2
The compositions were applied to the net strips by the same methods and at the same concentrations as described in Example 2 above. […]

An. Vestitipennis = test: Repellency field studies in experimental huts, Belize (Example 12); conditions: for Reduction (%) vs control hut / Number Collected in Entrance: 2.5 nmole; for Number Collected in Entrance: treated hut
Protocol: Compound 1405 was tested in field studies in Belize at a concentration of 2.5 nmole/cm^2. The field studies involved use of huts that were equipped with entrance and exit traps. The hut design and collection procedures correspond to those disclosed by Suwonkerd et al. in “The Effect of Host Type on Movement Patters of Aedes aegypti (Diptera: Culicidae) into and out of Experimental Huts in Thailand,” J. Vector. Ecol., vol. 31 (2), p. 311-318 (2006) which is incorporated herein by reference for all relevant and consistent purposes. The huts were equipped with entrance and/or exit traps at entry and exit points (e.g., windows and doors). The huts were randomized and designated as control (no treatment) or treated (with some intervention being evaluated). The relative numbers of mosquitoes entering or leaving the treated vs. control huts was determined. An. Vestitipennis, An. Albimanus, An. Punctimacula, An. Crucians and a large number of other culicines were collected in the traps. An. Vestitipennis comprised the majority of what was collected.

[4] = system: Ae. aegypti Houston strain (pyrethroid susceptible); test: Toxicity assay on treated netting (Example 7), Houston strain
Protocol: (§3) Several compounds were tested to determine their toxic effect on Ae. aegypti mosquitoes. Three mosquito strains were tested—Houston which is pyrethroid susceptible, That which is pyrethroid tolerant and Isla Mujer which is metabolically pyrethroid resistant.
(§4) The toxicity assay involved a single chamber to which treated netting was added. Twenty (20) mosquitoes were transferred to the chamber. After 1 hour, the number of knocked down mosquitoes was recorded and all mosquitoes were transferred to holding cartoons. The mosquitoes were given a 10% sucrose-soaked cotton ball and returned to the insectary. Mortaility was measured after 24 hours. A control assay using acetone-treated netting was used. Six replicates were performed at each treatment concentration.

[5] = system: Ae. aegypti Thai strain (pyrethroid tolerant); test: Toxicity assay on treated netting (Example 7), Thai strain
Protocol: as §3, §4

mosquitoes (Ae. aegypti) = test: Compound residual life: spatial repellency (Example 11); conditions: 12 week test period
Protocol: The four compounds of formula I described in Example 2 were tested for spatial repellency (directed movement away from the chemical source without the insect making physical contact with the treated surface) at low doses on female Aedes aegypti (Thailand strain) mosquitoes. The spatial repellency response was determined by use of the spatial repellency assay disclosed by Grieco et al. in “A New Classification System for the Actions of IRS Chemicals Traditionally Used for Malaria Control” in Plos One, Issue 8 (2007) (available at www.plosone.org) which is incorporated herein by reference for all relevant and consistent purposes. The assay used was a cylindrical assembly that included a treatment chamber at one end and a control chamber at the other end. The treatment chamber included a netting strip (nylon organdy) that was treated with the insecticide of interest at the relevant dose. The treatment chamber and control chamber were connected by a clear cylinder and were separated from the clear cylinder by butterfly valves. Twenty (20) mosquitoes were introduced into the clear central chamber and the butterfly valves were opened after 30 seconds. After 10 minutes, the valves were closed and the number of mosquitoes in each chamber was counted. […]

[6] = Dose 0.025 nm/cm^2, Time 1 hour
[7] = Dose 0.025 nm/cm^2, Time 24 hours
[8] = Dose 0.0725 nm/cm^2, Time 1 hour
[9] = Dose 0.0725 nm/cm^2, Time 24 hours
[10] = Dose 0.125 nm/cm^2, Time 1 hour
[11] = Dose 0.125 nm/cm^2, Time 24 hours
[12] = Dose 0.25 nm/cm^2, Time 24 hours
[13] = Dose 2.5 nm/cm^2, Time 24 hours

SMILES	contact irritancy (FIG. 1) [1]	contact irritancy and spatial repellency relative to screened compounds (FIG. 3) [2]	Houston (% dead (SE)) [4, 6] [%]	Houston (% dead (SE)) [4, 7] [%]	Houston (% dead (SE)) [4, 8] [%]	Houston (% dead (SE)) [4, 9] [%]	Houston (% dead (SE)) [4, 10] [%]	Houston (% dead (SE)) [4, 11] [%]	Houston (% dead (SE)) ([4]; Dose 0.25 nm/cm^2, Time 1 hour) [%]	Houston (% dead (SE)) [4, 12] [%]	Houston (% dead (SE)) ([4]; Dose 2.5 nm/cm^2, Time 1 hour) [%]	Houston (% dead (SE)) [4, 13] [%]	Thai (% dead (SE)) [5, 6] [%]	Thai (% dead (SE)) [5, 7] [%]	Thai (% dead (SE)) [5, 8] [%]	Thai (% dead (SE)) [5, 9] [%]	Thai (% dead (SE)) ([5]; Dose 2.5 nm/cm^2, Time 1 hour) [%]	Thai (% dead (SE)) [5, 13] [%]	other results
CC1(C)C(C=C(Cl)C(F)(F)F)C1C(=O)OCc1ccc(F)c(C(F)(F)F)c1F (centres unmarked) [Compound 1405]	showed contact irritancy at relatively low doses	superior contact irritancy and spatial repellency relative to most screened compounds	100	100	100	100	100	100	100	100	100	100	83.3	15	100	100	100	100	spatial repellency, dose compared with DDT (FIG. 2) [3]: showed repellency at a lower dose than DDT; effectiveness as a repellent in field huts (FIGS. 6-9) (An. Vestitipennis; 2.5 nmole/cm^2, four day study): extremely effective as a repellent; Reduction (%) vs control hut (An. Vestitipennis; Day 1): 97%; Number Collected in Entrance (An. Vestitipennis; Day 1): 37; Reduction (%) vs control hut (An. Vestitipennis; Day 2): 84%; Number Collected in Entrance (An. Vestitipennis; Day 2): 99; Reduction (%) vs control hut (An. Vestitipennis; Day 3): 66%; Number Collected in Entrance (An. Vestitipennis; Day 3): 173; Reduction (%) vs control hut (An. Vestitipennis; Day 4): 65%; Number Collected in Entrance (An. Vestitipennis; Day 4): 232; Reduction (%) vs control hut (An. Vestitipennis; Total of days 1-4): 82%; Number Collected in Entrance (An. Vestitipennis; Total of days 1-4): 541; Thai (% dead (SE)) [5, 10]: 100%; Thai (% dead (SE)) [5, 11]: 100%
CC1(C)C(C=C(Cl)Cl)C1C(=O)OCc1ccc(F)c(C(F)(F)F)c1F (centres unmarked) [Compound 1406]	showed contact irritancy at relatively low doses	superior contact irritancy and spatial repellency relative to most screened compounds	100	100	100	100	100	100	100	100	100	100	100	98.3	100	100	100	100	residual spatial repellent activity (in words) (mosquitoes (Ae. aegypti)): appeared to be the more residual of the two compounds tested; Thai (% dead (SE)) ([5]; Dose 0.25 nm/cm^2, Time 1 hour): 96.6%; Thai (% dead (SE)) [5, 12]: 100%
